According to ChEMBL document CHEMBL1155979, “Synthesis of gibberellin derivatives with anti-tumor bioactivities” (Bioorg Med Chem Lett, 2009):
Values after ≈ are worked out from the molar mass of the structure shown. Active and inactive are the calls of the source. The calls are words filed in the database; no cut-off is given here.

How the values were obtained:
HT-29 = experiment: Cytotoxicity against human HT-29 cells by MTT assay; format: functional, cell-based
A549 = experiment: Cytotoxicity against human A549 cells by MTT assay; format: functional, cell-based
HepG2 = experiment: Cytotoxicity against human HepG2 cells by MTT assay; format: functional, cell-based
MKN-28 = experiment: Cytotoxicity against human MKN28 cells by MTT assay; format: functional, cell-based
HL-60 = experiment: Cytotoxicity against human HL60 cells by MTT assay; format: functional, cell-based
[1] = Cytotoxicity against human BIU87 cells by MTT assay; format: functional, cell-based
[2] = molecular target: T1, DNA topoisomerase 1 (Homo sapiens) (UniProt P11387); experiment: Inhibition of topoisomerase I relaxation activity assessed as supercoiled pBR322 DNA at 8 ug/ml
T1 sequence (whole entry): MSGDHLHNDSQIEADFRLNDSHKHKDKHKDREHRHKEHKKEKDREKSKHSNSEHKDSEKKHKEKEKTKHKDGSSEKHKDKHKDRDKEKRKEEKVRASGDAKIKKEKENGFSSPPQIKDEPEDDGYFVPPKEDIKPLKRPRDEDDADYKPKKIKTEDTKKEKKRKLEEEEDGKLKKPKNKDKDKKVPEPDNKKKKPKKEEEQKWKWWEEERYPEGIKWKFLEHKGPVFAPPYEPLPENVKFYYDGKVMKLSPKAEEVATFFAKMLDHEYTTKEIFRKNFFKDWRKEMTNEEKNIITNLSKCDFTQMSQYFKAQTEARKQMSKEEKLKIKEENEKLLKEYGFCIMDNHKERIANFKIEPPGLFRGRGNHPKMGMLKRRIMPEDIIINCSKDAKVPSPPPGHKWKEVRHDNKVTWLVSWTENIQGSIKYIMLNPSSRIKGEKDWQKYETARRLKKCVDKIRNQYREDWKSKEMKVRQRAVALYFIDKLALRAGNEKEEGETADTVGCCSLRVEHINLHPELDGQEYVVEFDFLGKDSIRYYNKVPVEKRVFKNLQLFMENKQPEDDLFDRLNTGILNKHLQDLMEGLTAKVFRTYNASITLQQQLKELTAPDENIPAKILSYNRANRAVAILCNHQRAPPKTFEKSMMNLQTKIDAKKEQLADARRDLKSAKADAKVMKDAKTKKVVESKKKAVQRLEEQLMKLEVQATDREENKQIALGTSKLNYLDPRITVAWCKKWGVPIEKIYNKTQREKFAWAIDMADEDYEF

[3] = molecular target: T1, DNA topoisomerase 1 (Homo sapiens); experiment: Inhibition of topoisomerase I relaxation activity assessed as supercoiled pBR322 DNA

inhibition [2]	inhibition [3]	Compound	IC50 (HT-29)	IC50 (A549)	IC50 (HepG2)	IC50 (MKN-28)	IC50 (HL-60)	IC50 [1]
–	–	C=C1C(=O)[C@]23C[C@@]1(F)CC[C@H]2[C@@]12C=CC(=O)[C@](C)(C(=O)O1)[C@H]2[C@@H]3C(=O)OC	72.7 µM	38.9 µM	40.6 µM	4.1 µM	–	–
–	–	C=C1C(=O)[C@]23C[C@@]1(I)CC[C@H]2[C@@]12C=CC(=O)[C@](C)(C(=O)O1)[C@H]2[C@@H]3C(=O)OCc1ccccc1	50.2 µM	46 µM	69.5 µM	3 µM	–	–
–	–	C=C1[C@H](O)[C@]23C[C@@]1(OC(C)=O)CC[C@H]2[C@@]12C=C[C@H](OC(C)=O)[C@](C)(C(=O)O1)[C@H]2[C@@H]3C(=O)OCc1ccccc1	–	–	–	–	> 100 µg/mL	> 100 µg/mL
–	–	C=C1C[C@]23C[C@@]1(O)CC[C@H]2[C@@]12C=C[C@H](O)[C@](C)(C(=O)O1)[C@H]2[C@@H]3C(=O)OCc1ccccc1	–	–	–	–	> 100 µg/mL	> 100 µg/mL
–	–	C=C1C(=O)[C@]23C[C@@]1(F)CC[C@H]2[C@@]12C=CC(=O)[C@](C)(C(=O)O1)[C@H]2[C@@H]3C(=O)OCc1ccccc1	59.1 µM	64.4 µM	44.1 µM	9.8 µM	–	–
–	–	C=C1C(=O)[C@]23C[C@@]1(OC)CC[C@H]2[C@@]12C=CC(=O)[C@](C)(C(=O)O1)[C@H]2[C@@H]3C(=O)OCc1ccccc1	48.4 µM	28.2 µM	35 µM	0.8 µM	–	–
–	–	C=C1C[C@]23C[C@@]1(OC(C)=O)CC[C@H]2[C@@]12C=C[C@H](OC(C)=O)[C@](C)(C(=O)O1)[C@H]2[C@@H]3C(=O)OCc1ccccc1	–	–	–	–	> 100 µg/mL	> 100 µg/mL
–	–	C=C1C(=O)[C@]23C[C@@]1(Cl)CC[C@H]2[C@@]12C=CC(=O)[C@](C)(C(=O)O1)[C@H]2[C@@H]3C(=O)OCc1ccccc1	4.5 µM	28.8 µM	17.9 µM	6.8 µM	2.7 µg/mL (≈ 5.78 µM)	0.5 µg/mL (≈ 1.07 µM)
–	–	C=C1C[C@]23C[C@@]1(O)CC[C@H]2[C@@]12C=C[C@H](O)[C@](C)(C(=O)O1)[C@H]2[C@@H]3C(=O)O [GIBBERELLIN GA3]	–	–	–	–	> 100 µg/mL	> 100 µg/mL
–	–	C=C1C(=O)[C@]23C[C@@]1(OC(C)=O)CC[C@H]2[C@@]12C=C[C@H](OC(C)=O)[C@](C)(C(=O)O1)[C@H]2[C@@H]3C(=O)OCc1ccccc1	–	–	–	–	> 40 µg/mL	> 40 µg/mL
–	–	C=C1C[C@]23C[C@@]1(O)CC[C@H]2[C@@]12C=C[C@H](O)[C@](C)(C(=O)O1)[C@H]2[C@@H]3C(=O)OC	–	–	–	–	> 100 µg/mL	> 100 µg/mL
–	–	C=C1C(=O)[C@]23C[C@@]1(O)CC[C@H]2[C@@]12C=CC(=O)[C@](C)(C(=O)O1)[C@H]2[C@@H]3C(=O)OCc1ccccc1	83.3 µM	23.9 µM	20.5 µM	2.5 µM	–	–
–	–	C=C1C[C@]23C[C@@]1(O)CC[C@H]2[C@@]12C=CC(=O)[C@](C)(C(=O)O1)[C@H]2[C@@H]3C(=O)OCc1ccccc1	–	–	–	–	> 40 µg/mL	> 40 µg/mL
Active	Dose-dependent effect	C=C1C(=O)[C@]23C[C@@]1(Cl)CC[C@H]2[C@@]12C=CC(=O)[C@](C)(C(=O)O1)[C@H]2[C@@H]3C(=O)OC	2.9 µM	60.3 µM	39.8 µM	4.8 µM	6.5 µg/mL (≈ 16.6 µM)	1 µg/mL (≈ 2.56 µM)
–	–	C=C1C(=O)[C@]23C[C@@]1(OCC)CC[C@H]2[C@@]12C=CC(=O)[C@](C)(C(=O)O1)[C@H]2[C@@H]3C(=O)OCc1ccccc1	23.3 µM	24.2 µM	29.6 µM	16.5 µM	–	–
–	–	C=C1C(=O)[C@]23C[C@@]1(O)CC[C@H]2[C@@]12C=CC(=O)[C@](C)(C(=O)O1)[C@H]2[C@@H]3C(=O)OC	65.7 µM	90.9 µM	37.2 µM	39.6 µM	–	–
–	–	CC[C@]1(O)C[C@H]2CN(CCc3c([nH]c4ccccc34)[C@@](C(=O)OC)(c3cc4c(cc3OC)N(C=O)[C@H]3[C@@](O)(C(=O)OC)[C@H](OC(C)=O)[C@]5(CC)C=CCN6CC[C@]43[C@@H]65)C2)C1 [VINCRISTINE]	5.3 µM	2.5 µM	3.7 µM	7.1 µM	–	–
–	–	C=C1[C@H](O)[C@]23C[C@@]1(O)CC[C@H]2[C@@]12C=C[C@H](O)[C@](C)(C(=O)O1)[C@H]2[C@@H]3C(=O)OCc1ccccc1	–	–	–	–	> 100 µg/mL	> 100 µg/mL
–	–	C=C1C(=O)[C@]23C[C@@]1(OCC)CC[C@H]2[C@@]12C=CC(=O)[C@](C)(C(=O)O1)[C@H]2[C@@H]3C(=O)OC	34.1 µM	18.2 µM	120 µM	82.7 µM	–	–
–	–	C=C1[C@H](O)[C@]23C[C@@]1(O)CC[C@H]2[C@@]12C=C[C@H](O)[C@](C)(C(=O)O1)[C@H]2[C@@H]3C(=O)OC	–	–	–	–	> 100 µg/mL	> 100 µg/mL
–	–	C=C1C(=O)[C@]23C[C@@]1(OC)CC[C@H]2[C@@]12C=CC(=O)[C@](C)(C(=O)O1)[C@H]2[C@@H]3C(=O)OC	80.2 µM	54.5 µM	43.5 µM	3.4 µM	–	–
–	–	C=C1C(=O)[C@]23C[C@@]1(I)CC[C@H]2[C@@]12C=CC(=O)[C@](C)(C(=O)O1)[C@H]2[C@@H]3C(=O)OC	51.9 µM	53.2 µM	87 µM	6.7 µM	–	–
